# Source: patent publication US12473289B2, “Heterocyclic compounds as delta-5 desaturase inhibitors and methods of use” (Amgen Inc., priority 2019, dated 2025)
# Target: Delta-5-Desaturase (D5D) (Homo sapiens (Human), UniProt O60427)
# Experiment: In vitro measurement of Delta-5-Desaturase inhibitory activity using DGLA-CoA and Arachidonyl-CoA mass spectrometric assays
# Assay type: biochemical
# Conditions: membrane preparations of D5D-overexpressing HEK293 6E cells; averaged over at least two independent runs
# Summary of the method: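 Membranes from D5D-overexpressing HEK293 6E cells (10 μg/mL final) in Tris pH 7.5 with MgCl2, octyl glucoside and TCEP were mixed 1:1 with substrate solution (0.01 mM DGLA, 0.25 mM NADH, 0.25 mM ATP, 0.05 mM CoA) for 1 h at ambient temperature. RapidFire SPE-MS/MS MRM; IC50 by 4-parameter fit, ≥2 runs.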
# Delta-5-Desaturase (D5D), sequence (O60427 whole entry, species assumed): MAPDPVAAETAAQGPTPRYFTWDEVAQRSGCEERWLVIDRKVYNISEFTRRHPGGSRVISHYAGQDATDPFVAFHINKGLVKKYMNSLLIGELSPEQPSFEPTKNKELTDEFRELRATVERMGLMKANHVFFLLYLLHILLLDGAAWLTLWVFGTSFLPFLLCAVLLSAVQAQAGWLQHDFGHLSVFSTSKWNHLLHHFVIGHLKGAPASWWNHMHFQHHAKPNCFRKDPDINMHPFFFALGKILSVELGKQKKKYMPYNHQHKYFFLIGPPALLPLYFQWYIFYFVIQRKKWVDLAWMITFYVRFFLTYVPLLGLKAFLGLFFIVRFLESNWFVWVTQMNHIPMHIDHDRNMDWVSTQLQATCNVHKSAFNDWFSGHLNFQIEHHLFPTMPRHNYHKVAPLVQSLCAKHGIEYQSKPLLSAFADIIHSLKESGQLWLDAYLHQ
row,IC50 [nM],SMILES
1,313,"CNC(=O)c1ccn2c(=O)c(-c3cnn(CC(F)(F)C(F)(F)F)c3)c(C(F)(F)F)nc2c1 [Example 12-5, N-methyl-4-oxo-3-(1-(2,2,3,3,3-pentafluoropropyl)-1H-pyrazol-4-yl)-2-(trifluoromethyl)-4H-pyrido[1,2-a]pyrimidine-8-carboxamide]"
2,20.5,"O=c1c(-c2cnn(CC(F)(F)C(F)(F)F)c2)c(C(F)(F)F)nc2cc(CF)ccn12 [Example 13-2, 8-(fluoromethyl)-3-(1-(2,2,3,3,3-pentafluoropropyl)-1H-pyrazol-4-yl)-2-(trifluoromethyl)-4H-pyrido[1,2-a]pyrimidin-4-one]"
3,40.9,"CNc1ccn2c(=O)c(-c3ccc(OCC(F)(F)F)cc3)c(C(F)(F)F)nc2n1 [Example 14-1, 8-(Methylamino)-3-(4-(2,2,2-trifluoroethoxy)phenyl)-2-(trifluoromethyl)-4H-pyrimido[1,2-a]pyrimidin-4-one]"
4,441,"C[S+]([O-])c1ccn2c(=O)c(-c3ccc(OCC(F)(F)F)cc3)c(C(F)(F)F)nc2c1 (centres unmarked) [Example 15-1, 8-(Methylsulfinyl)-3-(4-(2,2,2-trifluoroethoxy)phenyl)-2-(trifluoromethyl)-4H-pyrido[1,2-a]pyrimidin-4-one]"
5,562,"C[S@@+]([O-])c1ccn2c(=O)c(-c3ccc(OCC(F)(F)F)cc3)c(C(F)(F)F)nc2c1 [Example 15-2, 8-((R)-methylsulfinyl)-3-(4-(2,2,2-trifluoroethoxy)phenyl)-2-(trifluoromethyl)-4H-pyrido[1,2-a]pyrimidin-4-one]"
6,235,"C[S@+]([O-])c1ccn2c(=O)c(-c3ccc(OCC(F)(F)F)cc3)c(C(F)(F)F)nc2c1 [Example 15-3, 8-((S)-methylsulfinyl)-3-(4-(2,2,2-trifluoroethoxy)phenyl)-2-(trifluoromethyl)-4H-pyrido[1,2-a]pyrimidin-4-one]"
7,712,"C[S+]([O-])c1ccn2c(=O)c(-c3cnn(CC(F)(F)C(F)(F)F)c3)c(C(F)(F)F)nc2c1 (centres unmarked) [Example 15-4, 8-(methylsulfinyl)-3-(1-(2,2,3,3,3-pentafluoropropyl)-1H-pyrazol-4-yl)-2-(trifluoromethyl)-4H-pyrido[1,2-a]pyrimidin-4-one]"
8,159,"C[S@+]([O-])c1ccn2c(=O)c(-c3cnn(CC(F)(F)C(F)(F)F)c3)c(C(F)(F)F)nc2c1 [Example 15-5, 8-((S)-methylsulfinyl)-3-(1-(2,2,3,3,3-pentafluoropropyl)-1H-pyrazol-4-yl)-2-(trifluoromethyl)-4H-pyrido[1,2-a]pyrimidin-4-one]"
9,173,"C[S@@+]([O-])c1ccn2c(=O)c(-c3cnn(CC(F)(F)C(F)(F)F)c3)c(C(F)(F)F)nc2c1 [Example 15-6, 8-((R)-methylsulfinyl)-3-(1-(2,2,3,3,3-pentafluoropropyl)-1H-pyrazol-4-yl)-2-(trifluoromethyl)-4H-pyrido[1,2-a]pyrimidin-4-one]"
10,185,"CC[S@@+]([O-])c1ccn2c(=O)c(-c3ccc(OCC(F)(F)F)cc3)c(C(F)(F)F)nc2c1 [Example 15-8, 8-((R)-ethylsulfinyl)-3-(4-(2,2,2-trifluoroethoxy)phenyl)-2-(trifluoromethyl)-4H-pyrido[1,2-a]pyrimidin-4-one]"
11,191,"CC[S@+]([O-])c1ccn2c(=O)c(-c3ccc(OCC(F)(F)F)cc3)c(C(F)(F)F)nc2c1 [Example 15-9, 8-((S)-ethylsulfinyl)-3-(4-(2,2,2-trifluoroethoxy)phenyl)-2-(trifluoromethyl)-4H-pyrido[1,2-a]pyrimidin-4-one]"
12,52.4,"N#CCc1ccn2c(=O)c(-c3cnn(CC(F)(F)C(F)(F)F)c3)c(C(F)(F)F)nc2c1 [Example 16-1, (4-Oxo-3-(1-(2,2,3,3,3-pentafluoropropyl)-1H-pyrazol-4-yl)-2-(trifluoromethyl)-4H-pyrido[1,2-a]pyrimidin-8-yl)acetonitrile]"
13,137,"NCc1ccn2c(=O)c(-c3cnn(CC(F)(F)C(F)(F)F)c3)c(C(F)(F)F)nc2c1 [Example 16-2, 8-(aminomethyl)-3-(1-(2,2,3,3,3-pentafluoropropyl)-1H-pyrazol-4-yl)-2-(trifluoromethyl)-4H-pyrido[1,2-a]pyrimidin-4-one]"
14,317,"CSCOc1ccn2c(=O)c(-c3ccc(OCC(F)(F)F)cc3)c(C(F)(F)F)nc2c1 [Example 17-1, 8-((Methylsulfanyl)methoxy)-3-(4-(2,2,2-trifluoroethoxy)phenyl)-2-(trifluoromethyl)-4H-pyrido[1,2-a]pyrimidin-4-one]"
15,48.6,"O=c1c(-c2ccc(OCC(F)(F)F)cc2)c(C(F)(F)F)nc2cc(OCF)ccn12 [Example 17-2, 8-(fluoromethoxy)-3-(4-(2,2,2-trifluoroethoxy)phenyl)-2-(trifluoromethyl)-4H-pyrido[1,2-a]pyrimidin-4-one]"
16,10100,"CS(=O)(=O)c1ccn2c(=O)c(-c3ccc(OCC(F)(F)F)cc3)c(C(F)(F)F)nc2c1 [Example 19, 8-(Methylsulfonyl)-3-(4-(2,2,2-trifluoroethoxy)phenyl)-2-(trifluoromethyl)-4H-pyrido[1,2-a]pyrimidin-4-one]"
17,109,"O=c1c(-c2ccc(OCC(F)(F)F)nc2)c(C(F)(F)F)nc2ccccn12 [Example 20, 3-(6-(2,2,2-Trifluoroethoxy)-3-pyridinyl)-2-(trifluoromethyl)-4H-pyrido[1,2-a]pyrimidin-4-one]"
18,5.8,"COc1ccn2c(=O)c(-c3ccc(OCC#N)cc3)c(C(F)(F)F)nc2c1 [Example 21, (4-(8-Methoxy-4-oxo-2-(trifluoromethyl)-4H-pyrido[1,2-a]pyrimidin-3-yl)phenoxy)acetonitrile]"
19,4,"COc1ccn2c(=O)c(-c3ccc(OCC(F)(F)C(F)(F)F)cc3)c(C(F)(F)F)nc2c1 [Example 22, 8-Methoxy-3-(4-(2,2,3,3,3-pentafluoropropoxy)phenyl)-2-(trifluoromethyl)-4H-pyrido[1,2-a]pyrimidin-4-one]"
20,66.2,"COc1ccn2c(=O)c(-c3cn(CCC(F)(F)F)cn3)c(C(F)(F)F)nc2c1 [Example 25, 8-Methoxy-2-(trifluoromethyl)-3-(1-(3,3,3-trifluoropropyl)-1H-imidazol-4-yl)-4H-pyrido[1,2-a]pyrimidin-4-one]"
21,128,"CN(C)Cc1ccn2c(=O)c(-c3cnn(CC(F)(F)C(F)(F)F)c3)c(C(F)(F)F)nc2c1 [Example 26, 8-((Dimethylamino)methyl)-3-(1-(2,2,3,3,3-pentafluoropropyl)-1H-pyrazol-4-yl)-2-(trifluoromethyl)-4H-pyrido[1,2-a]pyrimidin-4-one]"
22,553,"CC1(c2ccn3c(=O)c(-c4ccc(OCC(F)(F)F)cc4)c(C(F)(F)F)nc3c2)CCO1 (centres unmarked) [Example 27, 8-(2-Methyl-2-oxetanyl)-3-(4-(2,2,2-trifluoroethoxy)phenyl)-2-(trifluoromethyl)-4H-pyrido[1,2-a]pyrimidin-4-one]"
23,74.2,"C[C@H](O)c1ccn2c(=O)c(-c3ccc(OCC(F)(F)F)cc3)c(C(F)(F)F)nc2c1 [Example 30-1, 8-((1S)-1-hydroxyethyl)-3-(4-(2,2,2-trifluoroethoxy)phenyl)-2-(trifluoromethyl)-4H-pyrido[1,2-a]pyrimidin-4-one]"
24,111,"C[C@@H](O)c1ccn2c(=O)c(-c3ccc(OCC(F)(F)F)cc3)c(C(F)(F)F)nc2c1 [Example 30-2, 8-((1R)-1-hydroxyethyl)-3-(4-(2,2,2-trifluoroethoxy)phenyl)-2-(trifluoromethyl)-4H-pyrido[1,2-a]pyrimidin-4-one]"
25,164,"C[C@@H](O)c1ccn2c(=O)c(-c3cnn(CC(F)(F)C(F)(F)F)c3)c(C(F)(F)F)nc2c1 [Example 31-1, 8-((1R)-1-hydroxyethyl)-3-(1-(2,2,3,3,3-pentafluoropropyl)-1H-pyrazol-4-yl)-2-(trifluoromethyl)-4H-pyrido[1,2-a]pyrimidin-4-one]"
26,160,"C[C@H](O)c1ccn2c(=O)c(-c3cnn(CC(F)(F)C(F)(F)F)c3)c(C(F)(F)F)nc2c1 [Example 31-2, 8-((1S)-1-hydroxyethyl)-3-(1-(2,2,3,3,3-pentafluoropropyl)-1H-pyrazol-4-yl)-2-(trifluoromethyl)-4H-pyrido[1,2-a]pyrimidin-4-one]"
27,118,"COc1cnn2c(=O)c(-c3cnn(CC(F)(F)C(F)(F)F)c3)c(C(F)(F)F)nc2c1 [Example 34, 8-Methoxy-3-[1-(2,2,3,3,3-pentafluoropropyl)-1H-pyrazol-4-yl]-2-(trifluoromethyl)-4H-pyrimido[1,2-b]pyridazin-4-one]"
28,162,"COCc1ccn2c(=O)c(-c3cnn(CC(F)(F)C(F)(F)F)c3)c(C(F)(F)F)nc2c1 [Example 36, 8-(Methoxymethyl)-3-[1-(2,2,3,3,3-pentafluoropropyl)-1H-pyrazol-4-yl]-2-(trifluoromethyl)-4H-pyrido[1,2-a]pyrimidin-4-one]"
29,87.6,"COc1ccn2c(=O)c(-c3cnc(OCC(F)(F)F)nc3)c(C(F)(F)F)nc2c1 [Example 37, 8-Methoxy-3-[2-(2,2,2-trifluoroethoxy)pyrimidin-5-yl]-2-(trifluoromethyl)-4H-pyrido[1,2-a]pyrimidin-4-one]"

row,SMILES,IC50 [nM]
1,"CN(C(=O)F)c1ccn2c(=O)c(-c3cnn(CC(F)(F)C(F)(F)F)c3)c(C(F)(F)F)nc2c1 [Example 23, Methyl(4-oxo-3-(1-(2,2,3,3,3-pentafluoropropyl)-1H-pyrazol-4-yl)-2-(trifluoromethyl)-4H-pyrido[1,2-a]pyrimidin-8-yl)carbamyl fluoride]",1.6
2,"O=c1c(-c2ccc(OCC(F)(F)F)cc2)c(C(F)(F)F)nc2cc(C3CNC3)ccn12 [Example 28, 8-(3-Azetidinyl)-3-(4-(2,2,2-trifluoroethoxy)phenyl)-2-(trifluoromethyl)-4H-pyrido[1,2-a]pyrimidin-4-one]",2940
3,"O=c1c(-c2ccc(OCC(F)(F)F)cc2)c(C(F)(F)F)nc2cc(-c3ncco3)ccn12 [Example 29, 8-(1,3-Oxazol-2-yl)-3-(4-(2,2,2-trifluoroethoxy)phenyl)-2-(trifluoromethyl)-4H-pyrido[1,2-a]pyrimidin-4-one]",97.1
